3 compounds from patent US4457919A, “Method of imparting immunomodulating, antiviral or antitumor activity” (Newport Pharmaceutical International, Inc., priority 1982, dated 1984) can be followed below.

Data set [1] in a line: Chemical stability at varying pH, conversion to NPT 15392 (HPLC). In kind it is physicochemical. The settings on record: for Chemical stability (in words): 37° C., neutral pH; for degraded at 3.5 h, 360 µM: 3.5 hours incubation at 37° C., 0.36 μm/ml. How it is done:
Compound (conc.) % of NPT 15392*
*3.5 hours incubation at 37° C., determined using HPLC

For data set [2], the system named is Influenza virus (A sub-type).
Data set [3] can be described thus: Formation of NPT 15392 on incubation with Vero cells (HPLC). In kind it is in vitro ADME, African Green Monkey. The settings on record: monkey, 24 hrs. The source says: (§1) | ^a Determined using HPLC
Another data set deals with Vero Cells. Described as above. The settings on record: 0 hrs. In kind it is in vitro ADME, African Green Monkey.
Text: as §1

The next data set deals with HPBL (active E-rosettes). The data set can be described thus: Enhancement of active E-rosette formation in HPBL (in vitro). In kind it is cell-based, human. The note with it: for Immunomodulating (in vitro) Rosette, change: Table 11 summary; for Immunomodulating (in vitro) rosette formation (in words): active rosettes, HPBL. The protocol: 3. Enhancement of active rosette formation (in vitro).
3. As can be noted from Table 7, both NPT 15457 and NPT 15458 are effective in modulating active rosette formation in HPBL. […] In Experiment #2, placebo-treated controls have abnormally high values for active rosettes.
1. Ten to 40 ml of whole blood is drawn from healthy volunteers in heparinized tubes.
2. Lymphocytes are separated from the above blood using Ficoll-hypaque separation techniques.
3. Various concentration of test compound are prepared in RPMI-1640.
4. The concentration of lymphocytes are adjusted to 2×10^6 /ml of RPMI-1640.
5. Lymphocytes are incubated with test compound for 90 minutes at 37° C.
6. Sheep Red Blood Cells (SRBC.s) (one to two weeks old) are washed 3 times with PBS and diluted to a final concentration of 0.5% inj RPMI-1640.
7. Reaction tubes are set up containing the following:
8. The above reactants are centrifuged at 200×g for 5 minutes at room temperature.
9. The sediment is then gently resuspended and a […] sample placed in a hemocytometer.
10. The number of rosettes are then counted using a microscope with any lymphocyte having 3 or more attached red cells being counted as a rosette.

Data set [4] deals with IgM antibody production to sheep red blood cells. The data set can be described thus: IgM antibody formation in SRBC-immunized Balb/c mice (immunoplaque assay, in vivo). The note with it: for Immunomodulating (in vivo) IgM formation (in words): SRBC immunized mice. How it is done: 4. Enhancement of IgM antibody formation in mice immunized with sheep red blood cells (SRBC) (in vivo).
4. NPT 15457 and NPT 15458 and the "active" drug, NPT 15392, were given to Balb/c mice who had been immunized with sheep red blood cells SRBC. Antibody production to SRBC was measured. […] NPT 15392, at the levels studied, produce a 46% increase in IgM production. Higher doses of NPT 15392 will cause less of an increase or decrease over control values. […] This is to be expected since NPT 15458 produces very high levels of NPT 15392 which are most likely inhibitory to IgM formation.
1. Mice are immunized as follows: sheep blood (sheep #23) is received weekly from Hyland Labs. It is aseptically collected in two volumes of Alseviers to one volume of blood.
2. Five-tenths ml of the sheep blood in Alseviers is washed three times in sterile PBS in an IEC clinical centrifuge, setting #4 (2800 rpm) for 10 min. at room temperature.
3. The pellet is resuspended in 1:10 in sterile PBS.
4. A model Z Coulter counter is calibrated according to Coulter Instruction Manual.
5. A […] dilution is needed for a Coulter counter cell count and is obtained by first making a 1:100 dilution in PBS and then diluting this solution 1:10 in isoton. The Coulter counter threshold is adjusted to setting #5.
6. The cell count is determined and the stock solution is diluted to 4×10^7 cells/ml. This final suspension is used for immunization.
7. Each mouse is immunized by i.v. injection into the lateral tail vein (warmed in a 50° C. water bath for veinous dilation) with 0.1 ml SRBC suspension; the final concentration of SRBC's is 4×10^6 per mouse.
1. Mice are treated by i.p. injection on days 0, 1, 2 and 3. A syringe (1 cc) is fitted with a one-half inch, 26 gauge needle. The needle is introduced at a 45° angle along the right side of the linea alba. A 0.2 ml volume is given to both drug and control treated groups.
2. Drug groups are given 0.2 ml of a desired concentration NPT 15392 solution which, for a 20 g mouse, is 5 μg/ml.
1. Spleens are removed aseptically and placed individually in Falcon #2025 tissue culture tubes containing 3 ml MEM. The tubes are then stored on ice.
2. Spleens are homogenized in the same tube with a teflon pestle attached to a G. K. Heller variable speed reversible motor connected with a G. K. Heller GT-21 motor controller setting #6.
3. The homogenization time and action should be uniform from sample to sample.
4. Samples are then filtered through a 100 mesh 40 micron stainless screen into a standard tissue culture tube. The screen is rinsed with 3 ml MEM and the cell suspension is stored on ice.
5. A 1:1000 dilution is made for a Coulter counter cell count and is obtained by first making a 1:100 dilution in PBS followed by a 1:10 dilution in isoton.
6. The cell count is obtained and the stock suspension is diluted to 1×10^7 cells/ml. The Coulter counter threshold is set at 10. Red cells are lysed with three drops of Zap isoton.
Agar plates are removed from regrigerator and allowed to warm to room temperature. They are labeled in triplicate for each experimental group.
2. Agar-filled tubes are removed from the water bath. One-tenth of the 10% SRBC's and 0.1 ml spleen cell suspension are added to each agar tube. The tubes are agitated on a Vortex mixer.
3. The contents of the tubes are poured immediately into agar base plates and swirled until a smooth layer is formed. The plates are placed on a level surface until the agar solidifies.
4. The plates are incubated at 37° C. in a humidified atmosphere of 5% CO2 and 95% air for 90 min.
5. Guinea pig complement (see preparation, section D) is removed from freezer, thawed at room temperature and diluted 1:10 in PBS.
6. Plates are removed from incubator and 1 ml of the diluted complement is added to each plate.
7. Plates are then incubated another 30-45 minutes at 37° C. Plates are then removed from incubator and counted using oblique light.
8. […]

Where [5] appears, read: Experiment #1, 3.6 n moles/ml, placebo 9.23 ± 2.9, NPT 15457 and NPT 15458 p ≤ 0.05 versus placebo.
Where [6] appears, read: Experiment #2, 0.36 n moles/ml, placebo 34.2 ± 6.6, NPT 15392 and NPT 15458 p ≤ 0.05 versus placebo.
[7] abbreviates: Expt 1, 1.8 n moles/kg × 4 i.p., all p ≤ 0.01 vs placebo.
[8] abbreviates: Expt 1, 1.8 n moles/kg × 4 i.p., control 28 ± 2.
The mark [9] stands for this setting: Expt 2, .18 n moles/kg × 4 i.p., NPT 15392 and NPT 15458 p ≤ 0.01 vs placebo.
Setting [10] is: Expt 2, .18 n moles/kg × 4 i.p., control 46 ± 2.

Molecules are shown by their SMILES. Entries after “also recorded” stand apart in the source; their conditions may differ. Read-outs that look alike come from different tables or passages of the source.

As to `CCCCCC[C@H]([C@H](C)OC(C)=O)n1cnc2c(=O)[nH]cnc21` (relative stereo) [NPT 15458, erythro-9-(2-Acetoxy-3-Nonyl)-Hypoxanthine], the “Chemical stability (in words)” value in data set [1] is “have stability”. The degraded at 3.5 h, 360 µM in data set [1] (pH 1.0) amounted to 8%; in data set [1] (pH 7.0) it was 0%; in data set [1] (pH 9.5) it was 28%. For the same compound, the “Chemical conversion to NPT 15392 (in words)” value in data set [1] (pH 7.0) was “No”; in data set [1] (pH 9.5), “basic hydrolysis at pH 9.5 can convert and Yes”. Moreover, the “% Inhibition of Influenza Virus Growth” value came out at 40% in data set [2] (3.6 nmoles/ml), 80% in data set [2] (10.8 nmoles/ml), 88% in data set [2] (36 nmoles/ml) and 26% in data set [2] (.36 nmoles/ml). Further, the “Cleavage to NPT 15392 (in words)” value in data set [2] (hemadsorption assay) is on record as “almost completely cleaved to NPT 15392”. For the same compound, in data set [2], the “Antiviral activity in vitro (in words)” value was “Yes”. Moreover, in data set [3], the metabolised at 24 h is 50%. In addition, the “% of NPT 15392” value with Vero Cells was 0%. The “% Active E-Rosettes (mean ± S.E.)” value with HPBL (active E-rosettes) (setting [5]) was 19.4 ± 1.0%; in the data set on HPBL (active E-rosettes) (setting [6]), 23.25 ± 1.24%. Further, in the data set with HPBL (active E-rosettes), the “Immunomodulating (in vitro) Rosette, change” value is on record as “+11%”. Also, in the data set on HPBL (active E-rosettes), the “Immunomodulating (in vitro) rosette formation (in words)” value was “as active as NPT 15392 in restoring the depressed immunity to normal levels and able to decrease the high levels of normal values and Yes”. The “# IgM Plaques % of Control” value in data set [4] (setting [7]) turned out to be 28.5%; in data set [4] (setting [9]), 23.9%. Moreover, the results for the “# IgM Plaques (mean ± S.E.)” value in data set [4] (setting [8]) and in data set [4] (setting [10]) were 8 ± 1 and 11 ± 1, respectively. Moreover, the “Immunomodulating (in vivo) IgM formation (in words)” value in data set [4] was “produces an inhibition of IgM formation and very effective in modulating the production of IgM antibodies and Yes”. For the same compound, the “Immunomodulating (in vivo) SRPC-IgM, change” value in data set [4] (Table 11 summary) is given as -72%.
On to `CCCCCC[C@H]([C@H](C)O)n1cnc2c(=O)[nH]cnc21` (relative stereo) [NPT 15392, erythro-9-(2-hydroxy-3-nonyl)-hypoxanthine, reference compound], for which the degraded at 3.5 h, 360 µM in data set [1] (pH 1.0), in data set [1] (pH 7.0) and in data set [1] (pH 9.5) was 100% in each case. The “% Inhibition of Influenza Virus Growth” value in data set [2] (3.6 nmoles/ml) worked out at 30%; in data set [2] (10.8 nmoles/ml), 42%; in data set [2] (36 nmoles/ml), 73%; in data set [2] (.36 nmoles/ml), 20%. For the same compound, the “Antiviral activity in vitro (in words)” value in data set [2] is “Yes”. In data set [3], this compound had a metabolised at 24 h of 100%. In addition, the “% of NPT 15392” value in the data set on Vero Cells is recorded as 100%. Further, the “% Active E-Rosettes (mean ± S.E.)” value in the data set on HPBL (active E-rosettes) (setting [5]) is reported as 16.2 ± 1.0%; in the data set with HPBL (active E-rosettes) (setting [6]) it was 15.4 ± 2.9%. In addition, in the data set on HPBL (active E-rosettes), the “Immunomodulating (in vitro) Rosette, change” value was “+78%”. Further, the “Immunomodulating (in vitro) rosette formation (in words)” value in the data set with HPBL (active E-rosettes) was “able to decrease the high levels of normal values and Yes”. Further, the “# IgM Plaques % of Control” value in data set [4] (setting [7]) amounted to 146%; in data set [4] (setting [9]) it was 147%. Also, the results for the “# IgM Plaques (mean ± S.E.)” value in data set [4] (setting [8]) and in data set [4] (setting [10]) were 41 ± 4 and 68 ± 2, respectively. In addition, the “Immunomodulating (in vivo) IgM formation (in words)” value in data set [4] was “very effective in modulating the production of IgM antibodies and Yes”. In data set [4] (Table 11 summary), the “Immunomodulating (in vivo) SRPC-IgM, change” value is “+46%”. For the same compound, in data set [4] (at the levels studied), the “Increase in IgM production” value is 46%.
Turning to `CCCCCC[C@H]([C@H](C)OC(=O)CCC(=O)O)n1cnc2c(=O)[nH]cnc21` (relative stereo) [NPT 15457, Erythro-9-(2-Succinoxy-3-Nonyl) Hypoxanthine], the “Chemical stability (in words)” value in data set [1] was “have stability”. Further, the values for the degraded at 3.5 h, 360 µM in data set [1] (pH 1.0), in data set [1] (pH 7.0) and in data set [1] (pH 9.5) were 2%, 0% and 8%, respectively. Besides, the “Chemical conversion to NPT 15392 (in words)” value in data set [1] (pH 7.0) is “No”; in data set [1] (pH 9.5), “basic hydrolysis at pH 9.5 can convert and Yes”. The “% Inhibition of Influenza Virus Growth” value in data set [2] (3.6 nmoles/ml) amounted to 0%; in data set [2] (10.8 nmoles/ml), 18%; in data set [2] (36 nmoles/ml), 13%; in data set [2] (.36 nmoles/ml), 18%. For the same compound, in data set [3], the metabolised at 24 h was 0%. In the data set with Vero Cells, the “% of NPT 15392” value was 0%. Further, the “% Active E-Rosettes (mean ± S.E.)” value came to 24.8 ± 6% in the data set on HPBL (active E-rosettes) (setting [5]) and 33.6 ± 2.4% with HPBL (active E-rosettes) (setting [6]). For the same compound, the “Immunomodulating (in vitro) Rosette, change” value in the data set on HPBL (active E-rosettes) is “+166%”. Besides, the “Immunomodulating (in vitro) rosette formation (in words)” value in the data set with HPBL (active E-rosettes) was “as active as NPT 15392 in restoring the depressed immunity to normal levels and Yes”. In addition, the “# IgM Plaques % of Control” value in data set [4] (setting [7]) is on record as 68%; in data set [4] (setting [9]), 102%. Further, the entries for the “# IgM Plaques (mean ± S.E.)” value in data set [4] (setting [8]) and in data set [4] (setting [10]) were 19 ± 3 and 47 ± 3, respectively. For the same compound, the “Immunomodulating (in vivo) IgM formation (in words)” value in data set [4] is given as “less than that of NPT 15458; also recorded: Moderate”. Further, in data set [4] (Table 11 summary, unit not given), the “Immunomodulating (in vivo) SRPC-IgM, range” value is recorded as 0-60.
